Measurements: paper PMC555771 (Journal of Biomedicine and Biotechnology, 2004)

Legend:
[1] = test system: baboons fed the HCHF diet; type: in vivo, baboon
CETP = details: ref [10]; cited from earlier work
baboons [2] = details: in vivo
[3] = test system: cynomolgus monkeys fed the HCHF diet; type: in vivo, cynomolgus monkey; details: single iv injection 20 mg/kg, at day 7, n=2, P<.05
baboons [4] = experiment: IgG levels, body weights and food consumption in baboons; details: during the study (data not shown)

In the case of “truncated apoC-I peptide: 38 amino acid N-terminal fragment of apoC-I peptide based on human sequences, made by solid-phase synthesis; CETP inhibitor (TPDVSSALDKLKEFGNTLEDKARELISRIKQSELSAKM; UniProt P02654 27-64, looked up, fragment)”, the “day by which VLDL + LDL cholesterol reached baseline values” ([1]; intravenous, 10, 15, 20 mg/kg on days 0, 7, 14, n=3) is reported as ≤ 25 days, the “maximum increase in HDL cholesterol concentration” value ([1]; intravenous, 10, 15, 20 mg/kg on days 0, 7, 14, n=3, P<.05) is reported as 20% and the “change in plasma triglycerides” value ([1]; intravenous, 10, 15, 20 mg/kg on days 0, 7, 14, until day 19, except at day 4, n=3) is reported as “decreased”. For the same substance, the “day on which VLDL + LDL cholesterol returned to baseline values” ([1]; subcutaneous, 10, 15, 20 mg/kg on days 0, 7, 14, n=3) was 28 days, the “maximum decrease in VLDL + LDL cholesterol” value ([1]; subcutaneous, 10, 15, 20 mg/kg on days 0, 7, 14, on day 19, n=3) was 20% and the “maximum increase in HDL cholesterol” value ([1]; subcutaneous, 10, 15, 20 mg/kg on days 0, 7, 14, on day 23, n=3) was 20%. The “CETP activity in the plasma of low-HDL baboons” value (CETP) was “inhibited CETP activity”, the “plasma IgG levels, change in response to peptide infusion” value (baboons [2]) was “did not change significantly” and the “maximum decrease in plasma LDL cholesterol levels” value [3] was 26.5 ± 4.5%. The body weights (baboons [4]) was “no change” and the food consumption (baboons [4]) was “no change”.
